Reference: US10350334B2, “Catheter locking solution having antimicrobial and anticoagulation properties” (Becton, Dickinson and Company, priority 2009, dated 2019)

Key:
[1] = tested on: Candida albicans biofilm; assay: Catheter biofilm eradication (catheter segment test) on silicone tubing; type: cell-based; conditions: 1 hour, silicone catheter segments
Method: (§1) To understand the antimicrobial effects of the local anesthetics used in the lock solution of the present invention in a clinical setting, a biofilm was grown on silicone catheter-like tubing and treated with various concentrations of local anesthetics. First, a sterile silicone catheter-like tube containing 10 mL TSB media was inoculated with a BD BBL™ Qualiswab™, and placed in an incubator at 37° C. overnight. The next day, a sterile flask containing 25 mL TSB (for bacterial species) or 25 mL SDB (for fungal species) was inoculated with the cultured cells. The morning of the experiment, a new flask containing 25 mL of media was inoculated with the new overnight suspension. These steps were taken to ensure that cells were in the log phase, which for S. epidermidis was ˜3-4 hours, and for C. albicans was around ˜18 hrs. […] Microbial concentrations were adjusted to 1×10^5 CFU/mL by dilution with appropriate media. Silicone catheter-like tubing was terminally sterilized by autoclaving the tube for 45 minutes at 121° C. The sterilized catheter-like tubing was inoculated with 1×10^5 CFU/mL for 2 hours under continuous flow. Continuous flow was created by using a peristaltic pump, in which bacterial suspension was flowed through the catheter segments into a waste reservoir. After the 2 hour time period, the same set up was used to pump TSB media through the tubing for an additional 24 hours to allow biofilm to form on the walls of the catheter lumen. After 24 hours, sterilized saline was pumped through the lumen for 30 minutes to rinse the catheters. Catheters were then cut into 1 inch segments using sterile techniques. Catheter segments were dropped into sterile tubes containing 4 mL of antimicrobials, and incubated in a 37° C. incubator shaker for 1 hour. Segments were removed from treatment tubes and placed into new tubes filled with 6 mL of sterile saline. Each segment was swabbed with a sterile swab and both the tube and the swab were sonicated (Ultrasonic cleaner VWR Model 250T) for 3 minutes. Tubes and swabs were then vortexed (Fisher Scientific Vortex Mixer #02-215-365) for 30 seconds each. One hundred microliters of suspension was plated onto TSB agar plates (SDB for fungal species). The remaining 5.9 mL of suspension was passed through 0.4 μm filters and filters were placed on TSB plates. This step was taken to ensure that all possible bacteria were being recovered. All TSB plates were then incubated at 37° C. in a static incubator for 24-48 hours, at which time colony forming units were counted.

[2] = tested on: Staphylococcus epidermidis biofilm; assay: as above; type: cell-based; conditions: 1 hour, silicone catheter segments
Method: as §1

[3] = tested on: P. aeruginosa; assay: Minimum Biofilm Inhibitory Concentration (MBIC) test; type: cell-based, Pseudomonas aeruginosa; conditions: for MBIC: adhered cells, 24 hours incubation; for MBIC Assuming 2 mL lock volume: amount in 2 mL lock volume
Method: To further evaluate the efficacy of local anesthetics in antimicrobial lock solutions of the present invention, the minimum concentration at which these drugs can inhibit biofilm growth was tested. The local anesthetics identified in Table 4 were tested against three different species of bacteria identified in Table 3 to assess the antimicrobial efficacy against adhered microbes. It is known that adhered microbes, or biofilms, can be more resistant to antimicrobials than planktonic cells.
Experiments were conducted against adhered microbes as follows: first, a test tube containing 10 mL of sterile TSB was inocubated with BD BBL™ Qualiswab™, with the strain of interest. The tube was placed in an incubator at 37° C. overnight. The next day, a flask containing 25 mL of sterile TSB (or Sabouraud Dextrose Broth (SDB) for fungal species) was inoculated with 1 mL of bacterial suspension. The flask was placed in an incubator at 37° C. and shaken at 150 RPM. The next day a new flask containing 25 mL of TSB (or SDB) media was inoculated with 1 mL from the previous culture. The bacterial or fungal species were allowed to grow to log phase.
After the microbes entered the log phase, their concentration was checked to ensure that they had reached a minimum of 1×10^8 CFU/mL per a 0.5 MacFarland standard. Microbes were diluted to a concentration of 1×10^5 CFU/mL using a nephelometer and 200 μL of the microbial suspensions were plated on each of the wells of a 96 well plate. The plate was incubated in a standard incubator at 37° C. for 2 hours to allow for microbial cell adhesion. Next, dilutions of the desired concentrations of antimicrobials were prepared. In a separate, blank plate, 1:2 serial dilutions were prepared with the highest concentration of the antimicrobial to the left of the plate, decreasing in concentration towards the right of the plate. For example, 170 μL of the highest concentration of an antimicrobial was dispensed in column 1 (left of plate). Each of the rest of the columns received 170 μL of saline. Column 2 received 170 μL of antimicrobial, making for a 1:2 dilution (or 50% of original concentration). Contents of Column 2 were then transferred to 3, then from 3 to 4, and so forth. Each well was supplemented with 20% media (TSB for S. epidermidis and P. aeruginosa and SDB for C. albicans), thereby ensuring the viability of the cells over the test time period (24 hours). Positive control wells had 20% media in saline. The bacterial plate was removed from the incubator, and bacterial suspension discarded (adhered cells remain on plate). The antimicrobial formulations identified in Table 4 were then added to the bacterial plate and incubated in a standard incubator at 37° C. for 24 hours. After this time period, solutions in the plate were discarded and plates were rinsed with 200 μL of saline. The cells were then fixed with 200 μL of 95% ethanol for 30 minutes, and allowed to air dry for 10 minutes. Next, the cells were stained for 20 minutes with 250 μL of a filtered solution of 2% crystal violet dye. The plates were then rinsed three times with water, and the 2% crystal violet dye was solubilized with 300 μL of 95% ethanol. The plates were allowed to stand for 10 minutes to complete solubilization and then the plates were read on a spectrophotometer at 570 nm absorbance, wherein high absorbance readings of >0.600 indicated microbial growth. Columns in the plate that had no growth were recorded as the […] (MBIC). FIG. 2 illustrates the MBIC corresponding to the specific local anesthetics.

Structure (SMILES)	Log reduction of established biofilm [1]	Log reduction of established biofilm ([2]; 16 mg/mL)	MBIC [3]	MBIC Assuming 2 mL lock volume [3]	eradication of established biofilm ([1]; 30 mg/mL)	Log reduction of established biofilm ([2]; 30 mg/mL)	MBIC ([3]; HCl)	MBIC ([3]; listed as tetracaine, HCl)
CCCCN1CCCCC1C(=O)Nc1c(C)cccc1C.Cl (stereo not drawn) [Bupivacaine, Bupivacaine HCl]	~1 Log	~0.5 Log	16.25 mg/mL	32.5 mg	–	–	–	–
CCCCNc1ccc(C(=O)OCCN(C)C)cc1.Cl [Tetracaine, Tetracaine HCl]	–	–	–	12.82 mg	completely eradicated	1.7 Log	6.41 mg/mL	1.88 mg/mL
